Source: patent publication US20160010155A1, “KCNK3 Channel Loss-of-Function Mutants in Familial and Idiopathic Pulmonary Arterial Hypertension” (THE TRUSTEES OF COLUMBIA UNIVERSITY IN THE CITY OF NEW YORK, priority 2013, published 2016)

What was measured:
TASK-1 = TASK-1 (Homo sapiens, UniProt O14649); details: cited from earlier work
WT hKCNK3 channel = biological target: T1, WT hKCNK3 channel (Homo sapiens, UniProt O14649); test: Whole-cell patch clamp of WT hKCNK3 channels expressed in COS-7 cells, drug application; assay type: cell-based; details: 10 μM, current at +60 mV, pH 7.4
T1 construct: expressed in transfected cells; host or cells: COS-7
T1 sequence (O14649 whole entry): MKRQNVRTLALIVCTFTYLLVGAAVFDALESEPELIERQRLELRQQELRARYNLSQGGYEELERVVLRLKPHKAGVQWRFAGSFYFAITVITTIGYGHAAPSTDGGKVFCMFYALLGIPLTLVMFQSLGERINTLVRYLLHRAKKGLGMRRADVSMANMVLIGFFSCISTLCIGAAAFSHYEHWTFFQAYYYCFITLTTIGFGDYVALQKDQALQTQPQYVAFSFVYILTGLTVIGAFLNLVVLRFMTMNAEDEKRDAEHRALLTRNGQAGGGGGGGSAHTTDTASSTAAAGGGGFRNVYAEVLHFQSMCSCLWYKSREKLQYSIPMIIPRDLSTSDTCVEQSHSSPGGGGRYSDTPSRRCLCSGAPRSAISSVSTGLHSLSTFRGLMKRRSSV
Description: Functional analysis of the KCNK3 channel was performed to evaluate the functional effects of the rare genetic variants identified and to provide insight into the disease mechanism. pIRES-CD8-hKCNK3 was kindly provided by Florian Lesage (Institut de Pharmacologie Moléculaire et Cellulaire, Centre National de la Recherche Scientifique and Université de Nice Sophia Antipolis, Valbonne, France). hKCNK3 DNA was amplified and inserted into pcDNA 3.1 (+) vector (Invitrogen). Site-directed mutagenesis was performed using the QuikChange kit (Stratagene) and all constructs were sequenced before use. COS-7 cells (American Type Culture Collection) were grown under conventional conditions (5% CO2, DMEM (Gibco) +GlutaMax medium (Gibco) and 10% fetal bovine serum (Gibco)). […] The topology of the KCNK3 channel was based on the crystal structure of TWIK-1 channel^43 and alignment was performed using GeneDoc.^44 Membrane currents were measured with whole-cell patch-clamp procedures using Axopatch 200B amplifiers (Axon Instruments). […] Current measured at +60 mV was selected for comparison of constructs and drug actions. […] Analyzed data are shown as mean+/−S.E.M. Statistical significance was determined using one-way ANOVA. p<0.05 was considered statistically significant. […]

[1] = cited from earlier work

Chain of TASK-1 (O14649 whole entry): as above

For FC(F)(F)C(Cl)Br (stereo not drawn) [Halothane, 2-bromo-2-chloro-1,1,1-trifluoroethane], the “effect on TASK-1 channel” value (TASK-1) is given as “activated”.
For FC(F)OC(Cl)C(F)(F)F (stereo not drawn) [Isoflurane, 2-chloro-2-(difluoromethoxy)-1,1,1-trifluoro-ethane], the “effect on TASK-1 channel” value (TASK-1) is given as “activated”.
With CCCCCc1ccc(/C=C/C(=O)Nc2cc(Cl)ccc2C(=O)O)cc1 [ONO RS-082] the “WT hKCNK3 current after application of drug” value (WT hKCNK3 channel) was “robust increase”.
In the case of CCCCC[C@H](O)CC[C@@H]1[C@H]2Cc3cccc(OCC(=O)O)c3C[C@H]2C[C@H]1O [Treprostinil], the “dose linearity of pharmacokinetics” value ([1]; continuous subcutaneous, dose range 1.25 to 125 ng/kg/min, two-compartment model) is listed as “linear”, the excreted in feces ([1]; in vivo) is listed as 13% and the “excreted in the urine as identified metabolites” value ([1]; in vivo) is listed as 64%. The “excreted in the urine as unchanged drug” value ([1]; in vivo) was 4%, the half life ([1]; in vivo) was 4 h and the metabolism ([1]; in vivo) was “substantially metabolized by the liver”.
